Laboratory results taken from ChEMBL document CHEMBL1821558, “Toward potent α-glucosidase inhibitors based on xanthones: a closer look into the structure-activity correlations” (Eur J Med Chem, 2011).
Active and inactive are the calls of the source. No cut-off for these calls is given here.

What was measured:
[1] = test system: Saccharomyces cerevisiae; assay: Non competitive inhibition of yeast alpha-glucosidase using PNP glycoside as substrate at 15.3 uM preincubated for 30 mins by Lineweaver-Burk plot analysis
[2] = test system: Saccharomyces cerevisiae; assay: Ratio of 1,3,6,8-tetrahydroxy-9H-xanthen-9-one IC50 to compound IC50 for yeast alpha-glucosidase
[3] = Non competitive inhibition of yeast alpha-glucosidase using PNP glycoside as substrate preincubated for 30 mins by Lineweaver-Burk plot analysis; set-up: species or system Saccharomyces cerevisiae
[4] = Inhibition of yeast alpha-glucosidase using PNP glycoside as substrate after 30 mins by spectrophotometry; set-up: species or system Saccharomyces cerevisiae
[5] = test system: Saccharomyces cerevisiae; assay: Ratio of 1,3,6-trihydroxy-9H-xanthen-9-one IC50 to compound IC50 for yeast alpha-glucosidase
[6] = test system: Saccharomyces cerevisiae; assay: Non competitive inhibition of yeast alpha-glucosidase using PNP glycoside as substrate at 25.4 uM preincubated for 30 mins by Lineweaver-Burk plot analysis
[7] = test system: Saccharomyces cerevisiae; assay: Non competitive inhibition of yeast alpha-glucosidase using PNP glycoside as substrate at 34.8 uM preincubated for 30 mins by Lineweaver-Burk plot analysis
[8] = test system: Saccharomyces cerevisiae; assay: Ratio of 1,3-dihydroxy-9H-xanthen-9-one IC50 to compound IC50 for yeast alpha-glucosidase
[9] = test system: Saccharomyces cerevisiae; assay: Ratio of 1,3-dihydroxy-7-methyl-9H-xanthen-9-one IC50 to compound IC50 for yeast alpha-glucosidase

SMILES	IC50 [4] [µM]	also measured
O=c1c2c(O)cc(O)cc2oc2cc(O)c(-c3c(O)ccc4ccccc34)c(O)c12	8.1	inhibition [1]: Active; Ratio IC50 [2]: 2; Ki [3]: 29.2 µM
O=c1c2ccccc2oc2cc(O)c(-c3c(O)ccc4ccc(O)cc34)c(O)c12	75.4	
O=c1c2ccccc2oc2c(-c3c(O)ccc4ccccc34)c(O)c(-c3c(O)ccc4ccccc34)c(O)c12	10.1	
O=c1c2ccc(O)cc2oc2c(-c3c(O)ccc4ccccc34)c(O)c(-c3c(O)ccc4ccccc34)c(O)c12	6.2	
Cc1ccc2oc3c(-c4c(O)ccc5ccccc45)c(O)c(-c4c(O)ccc5ccccc45)c(O)c3c(=O)c2c1	6.4	
O=c1c2c(O)cc(O)cc2oc2cc(O)cc(O)c12	17.2	Ki [3]: 62.8 µM; inhibition [7]: Active
O=c1c2ccccc2oc2cc(O)cc(O)c12	161	
O=c1c2ccc(O)cc2oc2cc(O)c(-c3c(O)ccc4ccc(O)cc34)c(O)c12	47.6	
O=c1c2ccccc2oc2cc(O)c(-c3c(O)ccc4ccccc34)c(O)c12	47.7	Ratio IC50 [8]: 2
Cc1ccc2oc3cc(O)c(-c4c(O)ccc5ccccc45)c(O)c3c(=O)c2c1	26.5	Ratio IC50 [9]: 2

Now from value to compound, other results behind:

IC50 [4] [µM]	SMILES	also measured
10.5	O=c1c2ccc(O)cc2oc2cc(O)c(-c3c(O)ccc4ccccc34)c(O)c12	Ratio IC50 [5]: 2
> 200	Cc1ccc2oc3cc(O)cc(O)c3c(=O)c2c1	
112	Cc1ccc2oc3cc(O)c(-c4c(O)ccc5ccc(O)cc45)c(O)c3c(=O)c2c1	
17.4	O=c1c2c(O)cc(O)cc2oc2cc(O)c(-c3c(O)ccc4ccc(O)cc34)c(O)c12	Ki [3]: 50.9 µM; inhibition [6]: Active
41.5	O=c1c2ccc(O)cc2oc2cc(O)cc(O)c12	
40	OC[C@H]1NC[C@H](O)[C@@H](O)[C@@H]1O [DUVOGLUSTAT]	
